Experimental findings from the Kinase Knowledgebase extract (Sharma et al. 2016) are described below.

pIC50: −log10 of the molar value.

MAPK14 (human), sequence (Q16539 whole entry, looked up): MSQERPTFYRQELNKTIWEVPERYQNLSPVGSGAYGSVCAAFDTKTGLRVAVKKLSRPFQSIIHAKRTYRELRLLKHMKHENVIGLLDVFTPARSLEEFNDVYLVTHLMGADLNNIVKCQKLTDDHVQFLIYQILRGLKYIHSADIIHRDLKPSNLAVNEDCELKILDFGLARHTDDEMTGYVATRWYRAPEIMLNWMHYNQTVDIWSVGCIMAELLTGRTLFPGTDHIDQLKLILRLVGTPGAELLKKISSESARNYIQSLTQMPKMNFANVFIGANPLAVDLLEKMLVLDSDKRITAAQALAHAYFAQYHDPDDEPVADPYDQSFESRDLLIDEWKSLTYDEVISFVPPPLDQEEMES

One assay addresses MAPK14 (human) (UniProt Q16539). The assay is described as follows: Inhibition of MAPK14 Kinase Activity.
Conditions: not given
In turn, `CN(C)CCNC(=O)CN1CCN(C(=O)c2sc(C(C)(C)C)cc2NC(=O)Nc2ccc(F)c(Cl)c2Cl)C(C)(C)C1=O` showed a pIC50 above 5.30.
Same read-out and setting: for `CC(C)(C)c1cc(C(=O)N2CCNC(=O)CC2)c(NC(=O)Nc2ccccc2C(F)(F)F)s1` the value was above 5.30; for `CC(C)(C)c1cc(C(=O)N2CCNC(=O)C2(C)CC(=O)O)c(NC(=O)Nc2cccc(Cl)c2Cl)s1` (configuration not stated), above 5.30.
On the same count and under the same terms, for `CN(C)CCNC(=O)CN1CCN(C(=O)c2sc(C(C)(C)C)cc2NC(=O)Nc2ccc(F)c(F)c2Cl)C(C)(C)C1=O` the value was above 5.30; for `CCC(C)(C)c1cc(NC(=O)Nc2cccc(Cl)c2Cl)c(C(=O)N2CCNC(=O)C2(C)C)[nH]1`, above 5.30; for `CN1CCN(C(=O)c2oc(C(C)(C)C)cc2NC(=O)Nc2cccc(Cl)c2Cl)CCS1(=O)=O`, above 5.30.
Same read-out and setting: for `CC(C)(C)c1cc(C(=O)N2CCCN(S(C)(=O)=O)CC2)c(NC(=O)Nc2cccc(Cl)c2Cl)s1` the value was above 5.30.
Compound `CON(C)C(=O)CC1(C)C(=O)NCCN1C(=O)c1cc(C(C)(C)C)sc1NC(=O)Nc1ccc(F)c(Cl)c1Cl` (configuration not stated) gave a pIC50 above 5.30.
Same read-out and setting: for `O=C(Nc1cc(C(F)(F)F)ccc1C(=O)N1CCS(=O)(=O)CC1)Nc1cccc(Cl)c1Cl` the value was above 5.30; for `Cc1noc(CN2CCN(C(=O)c3cc(C(C)(C)C)sc3NC(=O)Nc3cccc(Cl)c3Cl)C(C)(C)C2=O)n1`, above 5.30.
In turn, `CC(C)(C)c1cc(C(=O)N2CCNC(=O)C23CCCC3)c(NC(=O)Nc2cccc(Cl)c2Cl)s1` gave a pIC50 above 5.30.
On the same count and under the same terms, under `CN(C)CCN1CCN(C(=O)c2cc(C(C)(C)C)sc2NC(=O)Nc2ccccc2C(F)(F)F)C(C)(C)C1=O` stands above 5.30; under `CCC1(C)C(=O)NCCN1C(=O)c1cc(C(C)(C)C)sc1NC(=O)Nc1ccc(F)c(Cl)c1Cl` (configuration not stated), above 5.30; under `CCOC(=O)CN1CCN(C(=O)c2cc(NC(=O)Nc3ccc(F)c(Cl)c3Cl)c(C(C)(C)C)s2)C(C)(CC(=O)OC)C1=O` (configuration not stated), above 5.30.
Same read-out and setting: under `CC(C)(C)c1cc(C(=O)N2CCNC(=O)C2CC(N)=O)c(NC(=O)Nc2cccc(Cl)c2Cl)s1` (configuration not stated) stands above 5.30.
The same measure, in the same setting: for `CC(C)(C)c1cc(C(=O)N2CCNC(=O)C2(C)C)c(NC(=O)Nc2cc(Cl)cc(Cl)c2)s1` the value was above 5.30; for `CC(C)(C)c1cc(C(=O)N2CCN(CC(=O)NO)C(=O)C2(C)C)c(NC(=O)Nc2ccc(F)c(Cl)c2Cl)s1`, above 5.30.
As for `CC(C)(C)c1cc(C(=O)N2CCNC(=O)C2(C)CCO)c(NC(=O)Nc2ccc(F)c(Cl)c2Cl)s1` (configuration not stated), the pIC50 is above 5.30.
On the same count and under the same terms, for `CC(C)(C)c1cc(NC(=O)Nc2cccc(Cl)c2Cl)c(C(=O)N2CCN(CC(N)=O)C(=O)C2(C)C)[nH]1` the value was above 5.30; for `Cc1c(Cl)cccc1NC(=O)Nc1sc(C(C)(C)C)cc1C(=O)N1CCNC(=O)C1(C)CCO` (configuration not stated), above 5.30; for `CCC(C)(C)c1cc(NC(=O)Nc2ccc(F)c(Cl)c2Cl)c(C(=O)N2CCNC(=O)C2(C)C)[nH]1`, above 5.30.
The same measure, in the same setting: for `COC(=O)CC1(C)C(=O)NCCN1C(=O)c1sc(C(C)(C)C)cc1NC(=O)Nc1ccc(F)c(F)c1Cl` (configuration not stated) the value was above 5.30; for `COc1cccc(NC(=O)Nc2sc(C(C)(C)C)cc2C(=O)N2CCC(=O)N(CCN(C)C)CC2)c1Cl`, above 5.30.
Still for that read-out and setting: for `CN(C)CCN1CCN(C(=O)c2oc(C(C)(C)C)cc2NC(=O)Nc2cccc(Cl)c2Cl)CCS1(=O)=O` the value was above 5.30.
For `CN(C)CCN1CCN(C(=O)c2[nH]c(C(C)(C)C)cc2NC(=O)Nc2cccc(Cl)c2Cl)C(C)(C)C1=O`, the pIC50 is above 5.30.
In turn, `CC(C)(C)c1cc(C(=O)N2CCNC(=O)C2(C)C)c(NC(=O)Nc2cccc3ccccc23)s1` had a negative-log IC50 (pIC50) above 5.30.
`CC(C)(C)c1cc(C(=O)N2CC(=O)NC(CO)C2)c(NC(=O)Nc2cccc(Cl)c2Cl)s1` (configuration not stated) showed a pIC50 above 5.30.
On the same count and under the same terms, for `CCOC(=O)C(C)(CC)NC(=O)c1cc(C(C)(C)C)sc1NC(=O)Nc1cccc(Cl)c1Cl` (configuration not stated) the value was above 5.30.
Same read-out and setting: under `CC(C)(C)c1cc(C(=O)N2CCNC(=O)C2(C)C)c(NC(=O)Nc2cccc(Cl)c2Cl)[nH]1` stands above 5.30; under `CC(=O)NC1CCCN(C(=O)c2cc(C(C)(C)C)sc2NC(=O)Nc2cccc(Cl)c2Cl)C1` (configuration not stated), above 5.30; under `CC(C)(C)c1cc(C(=O)N2CCNC(=O)CC2)c(NC(=O)Nc2ccccc2Br)s1`, above 5.30.
`CCc1ccccc1NC(=O)Nc1sc(C(C)(C)C)cc1C(=O)N1CCNC(=O)C1(C)C` gave a pIC50 above 5.30.
Same read-out and setting: for `CC(C)(C)c1cc(C(=O)N2CCNCC2)c(NC(=O)Nc2cccc(Cl)c2Cl)s1` the value was above 5.30.
Compound `CN(C)CCNC(=O)CN1CCN(C(=O)c2sc(C(C)(C)C)cc2NC(=O)Nc2cccc(Cl)c2Cl)C(C)(C)C1=O` gave a negative logarithm of the IC50 (pIC50) above 5.30.
The same measure, in the same setting: under `CCC1(C)C(=O)N(CC(=O)NCCN(C)C)CCN1C(=O)c1cc(C(C)(C)C)sc1NC(=O)Nc1cccc(Cl)c1Cl` (configuration not stated) stands above 5.30.
Same read-out and setting: under `COc1ccc(CCC(=O)N2CCN(C(=O)c3cc(C(C)(C)C)sc3NC(=O)Nc3cccc(Cl)c3Cl)CC2)cc1` stands above 5.30; under `CN(C)CCN1CCN(C(=O)c2cc(C(C)(C)C)sc2NC(=O)Nc2cccc(Cl)c2Cl)C(C)(C)C1=O`, above 5.30; under `CC(C)(C)c1cc(C(=O)N2CCN(CCC(=O)O)C(=O)C2(C)C)c(NC(=O)Nc2cccc(Cl)c2Cl)s1`, above 5.30.

Staying with this assay, now noted: concentration not given here.
`Cc1cccc(NC(=O)Nc2sc(C(C)(C)C)cc2C(=O)N2CCNS(=O)(=O)CC2)c1`: the inhibition lay in the range of 76 to 100%.
On the same count and under the same terms, for `COCOCCN1CCN(C(=O)c2cc(C(C)(C)C)sc2NC(=O)Nc2cccc(Cl)c2Cl)CCC1=O` the value was 76 to 100%.
Still for that read-out and setting: under `COCCOCCN1CCN(C(=O)c2cc(C(C)(C)C)sc2NC(=O)Nc2cccc(Cl)c2Cl)CCC1=O` stands 76 to 100%; under `CC(C)(C)c1cc(C(=O)N2CCNS(=O)(=O)CC2)c(NC(=O)Nc2cc(Cl)cc(Cl)c2)s1`, 76 to 100%.
